Experimental data published in patent publication US20180346446A1, “IRE1 SMALL MOLECULE INHIBITORS” (QUENTIS THERAPEUTICS, INC., priority 2017, published 2018).
pEC50, pIC50: −log10 of the molar value.

What was measured:
[1] = biological target: T1, IRE1a (Homo sapiens, UniProt O75460); experiment: In vitro FRET assay (XBP1 RNA probe cleavage by IRE1a); type: biochemical; parameters: purchased SignalChem; conditions: 2 nM IRE1a protein
Experimental: In vitro FRET assay was performed to evaluate the ability of select compounds to inhibit IRE1, the results of which are summarized in Table 3. To perform the in vitro FRET assay, 1× complete assay buffer (CAB; […], 50 mM sodium citrate pH 7.15, ImM magnesium acetate, 0.02% tween 20) was used to dilute SignalChem IRE1a protein to a final concentration of 2 nM. Selected compounds were serially diluted with DMSO in a non-binding black 384-well plate for a total of 15 ul in each well. 2 ul of the serially diluted compound or DMSO control were then added to new wells containing 98 ul of 1×CAB, for a total volume of 100 ul, 10 ul of which were then transferred to wells of a new plate. 5 ul of the diluted IRE1a was then added to each well. 5 ul of a […] XBP1 RNA probe was then added to each well. Fluorescence was then read over 30 minutes in kinetic mode (485/515 nm).
Two RNA probes were used, XBP1 wildtype (SEQ ID NO: 2) which is able to be spliced by active IRE1a or XBP1 mutant (SEQ ID NO: 3) which is unable to be spliced. Each probe contained a 5′ 6-FAM modification and a 3′ IOWA Black FQ modification. […]

[2] = system: 293T cells; experiment: Growth assay (cytotoxicity); type: cell-based; conditions: 2 day incubation
Experimental: A growth assay was performed to evaluate the compounds disclosed herein for cytotoxicity. Briefly, 5,000,000 293T cells were resuspended in 18 mL of cDMEM for a final concentration of 277,777 cells/mL. […] In a separate 96 well dilution plate, 199 uL cDMEM and 1 uL of DMSO or any one of the compounds disclosed herein (shown as Test Compound 1, 2, 3, 4, 5, or 6 below) were added to wells A4, A8, C4, C8, E4, E8, G4, and G8. 133.3 uL cDMEM was added to wells 1, 2, 3, 5, 6, and 7 in rows A, C, E and G of the dilution plate. Compounds were serially diluted leftwards in threefold dilutions (66.7 uL into 133.3 uL cDMEM). 20 uL of each dilution was transferred in duplicate (duplicates in vertical paired wells) to the cells plated in the 96-well plate shown in Table 5, to the total concentrations shown below. 200 uL cDMEM was added to media wells (wells G5-H8). The plate was then placed in a humidified chamber for a 2 day incubation, and then photographed (media was more yellow in wells with potent cell growth). Absorbance was then measured at about […] (lower for more acidic media) and about […] (higher for more acidic media).

[3] = biological target: T1, IRE1a; experiment: IRE1a Endoribonuclease Nanoluciferase Assay (XBP1 luciferase reporter in 293T cells); type: cell-based; conditions: 293T cells transfected with XBP1 luciferase reporter, ER stressors +/- inhibitors
Experimental: Compounds disclosed herein were assessed for disruption of IRE1 signaling using a IRE1a Endoribonuclease Nanoluciferase Assay. Briefly, 2.5×10^6 293T cells were seeded in a 10 cm^2 tissue culture plate. About 24 hours later, the cells were transfected with Effectene. In a 15 mL Tube, the following was added: 2 ug XBP1 luciferase reporter plasmid (PGK-Luc2-P2A-XBP1u-Nanoluciferase-PEST); 300 ul EC buffer; and 16 ul Enhancer, followed by incubation at room temp for 5 minutes. Next, 60 ul Effectene (Qiagen 301427) was added, followed by incubation at room temperature for 10 minutes. 2.6 mL cDMEM media was added. Old media was aspirated from the cells, followed by addition of 7 mL fresh media. Full transfection mixture was added dropwise to cells. Cells were incubated for 6 hours, followed by trypsinization, centrifugation and resuspension in 11 mL media. 100 uL of cells were plated per a well in a 96 well plate. A day later, ER stressors of choice +/− inhibitors were added. To harvest, media was aspirated from cells completely, then 50 uL 1× passive lysis buffer (Promega: E1941) was added per well and put on shaker (300 rpm) for 30 minutes at room temperature. Cells were centrifuged, and 15 uL sample per well was added to a new, opaque white 384 well plate (Corning 3570). 15 uL OneGlo (nanoluciferase kit, Promega N1630) was added. Plates were spun down, placed on shaker (300 rpm) for 10 minutes. Plates were read on luminometer, 1000 ms integration time per well. 15 uL Stop and Glo (nanoluciferase kit) was added. Plates were spun down, placed on shaker (300 rpm) for 10 minutes. Plates were read on luminometer, 1000 ms second integration time per well. Recordings are provided below in Table 4.

T1 sequence (O75460 19-977): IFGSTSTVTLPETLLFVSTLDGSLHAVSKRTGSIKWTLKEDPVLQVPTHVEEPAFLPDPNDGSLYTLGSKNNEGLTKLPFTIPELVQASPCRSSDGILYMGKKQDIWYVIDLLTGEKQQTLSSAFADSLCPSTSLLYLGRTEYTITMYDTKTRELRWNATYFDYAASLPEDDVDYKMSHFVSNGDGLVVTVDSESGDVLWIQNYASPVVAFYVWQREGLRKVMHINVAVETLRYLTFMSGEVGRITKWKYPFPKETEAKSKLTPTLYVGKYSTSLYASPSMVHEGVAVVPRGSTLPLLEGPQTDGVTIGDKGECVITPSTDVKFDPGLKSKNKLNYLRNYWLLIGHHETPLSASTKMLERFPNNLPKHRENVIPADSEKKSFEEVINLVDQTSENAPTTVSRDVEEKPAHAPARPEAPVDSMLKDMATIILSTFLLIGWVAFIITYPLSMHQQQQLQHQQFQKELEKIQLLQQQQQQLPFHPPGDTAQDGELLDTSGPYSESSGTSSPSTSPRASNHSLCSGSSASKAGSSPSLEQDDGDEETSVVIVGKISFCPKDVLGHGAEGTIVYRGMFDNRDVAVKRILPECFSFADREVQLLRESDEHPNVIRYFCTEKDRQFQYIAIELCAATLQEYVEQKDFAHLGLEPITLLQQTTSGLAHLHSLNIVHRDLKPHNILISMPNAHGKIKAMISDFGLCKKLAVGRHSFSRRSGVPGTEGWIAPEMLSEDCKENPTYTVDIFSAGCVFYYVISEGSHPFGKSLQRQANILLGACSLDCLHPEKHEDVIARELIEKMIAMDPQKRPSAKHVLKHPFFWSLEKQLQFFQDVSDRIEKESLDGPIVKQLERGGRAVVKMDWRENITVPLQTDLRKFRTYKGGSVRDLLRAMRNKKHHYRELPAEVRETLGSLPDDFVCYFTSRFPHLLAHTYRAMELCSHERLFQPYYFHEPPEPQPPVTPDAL

| SMILES | pIC50 [1] | % Growth at 0.185 uM [2] | % Growth at 0.5556 uM [2] | % Growth at 1.667 uM [2] | % Growth at 5 uM [2] | pEC50 [3] |
| --- | --- | --- | --- | --- | --- | --- |
| CCc1cc(-c2ccc(NS(=O)(=O)c3ccccc3Cl)c(F)c2C)cc2cnc(N[C@H]3CC[C@H](N)CC3)nc12.O=CO [71; Formic Acid] | ≥ 8.30 | D (D: >75% to ≤100%) | D (D: >75% to ≤100%) | C (C: >50% to ≤75%) | B (B: >25% to ≤50%) | ≥ 8.30 |
| CCc1cc(-c2ccc(NS(=O)(=O)c3ccccc3Cl)cn2)cc2cnc(N[C@H]3CC[C@H](N)CC3)nc12.O=CO [28; Formic Acid] | ≥ 8.30 | D (D: >75% to ≤100%) | D (D: >75% to ≤100%) | C (C: >50% to ≤75%) | B (B: >25% to ≤50%) | ≥ 8.30 |
| CCc1cc(-c2cnc(NS(=O)(=O)c3ccccc3Cl)c(F)c2)cc2cnc(N[C@H]3CC[C@H](N)CC3)nc12.O=CO [55; Formic Acid] | ≥ 8.30 | D (D: >75% to ≤100%) | D (D: >75% to ≤100%) | D (D: >75% to ≤100%) | D (D: >75% to ≤100%) | ≥ 8.30 |
| N[C@H]1CC[C@H](Nc2cc3ccc(-c4ccc(NS(=O)(=O)c5ccccc5Cl)c(F)c4)cc3cn2)CC1 [57; Formic Acid] | ≥ 8.30 |  |  |  |  | ≥ 8.30 |
| COCc1cc(-c2ccc(NS(=O)(=O)c3ccccc3Cl)nc2OC)cc2cnc(N[C@H]3CC[C@H](N)CC3)nc12 [129; Formic Acid] | ≥ 8.30 |  |  |  |  | ≥ 8.30 |
| CCc1cc(-c2ccc(NS(=O)(=O)c3cccc(C)c3)nc2C)cc2cnc(N[C@H]3CC[C@H](N)CC3)nc12 [113; Formic Acid] | ≥ 8.30 |  |  |  |  | 7.30 to 8.30 |
| Cn1nc(NS(=O)(=O)c2ccccc2Cl)cc1-c1ccc2nc(N[C@H]3CC[C@H](N)CC3)ncc2c1 [Compound 1, N-(5-(2-(((1r,4r)-4-aminocyclohexyl)amino)quinazolin-6-yl)-1-methyl-1H-pyrazol-3-yl)-2-chlorobenzenesulfonamide] | 7.30 to 8.30 |  |  |  |  | < 7.00 |
| CCc1cc(-c2cnc(NS(=O)(=O)c3ccccc3Cl)cc2OC)cc2cnc(N[C@H]3CC[C@H](N)CC3)nc12 [92; Formic Acid] | ≥ 8.30 |  |  |  |  | < 7.00 |
| CCc1cc(-c2cc(CC)c3nc(N[C@H]4CC[C@H](N)CC4)ncc3c2)nnc1NS(=O)(=O)c1ccccc1Cl [100; Formic Acid] | ≥ 8.30 |  |  |  |  | 7.00 to 7.30 |
| CCc1cc(-c2cc(OC)c(NS(=O)(=O)c3ccccc3Cl)nn2)cc2cnc(N[C@H]3CC[C@H](N)CC3)nc12 [66; Formic Acid] | ≥ 8.30 |  |  |  |  | 7.00 to 7.30 |
| COc1nc(NS(=O)(=O)c2ccccc2Cl)ccc1-c1cc(C)c2nc(N[C@H]3CC[C@@H](N)CC3)ncc2c1 [138; Formic Acid] | ≥ 8.30 |  |  |  |  | 7.00 to 7.30 |
| CCc1cc(-c2ncc(NS(=O)(=O)c3ccccc3Cl)cc2OC)cc2cnc(N[C@H]3CC[C@H](N)CC3)nc12 [93; Formic Acid] | ≥ 8.30 |  |  |  |  | ≥ 8.30 |
| N[C@@H]1CC[C@@H](Nc2ncc3cc(-c4ccc(NS(=O)(=O)c5ccccc5Cl)c(F)c4)ccc3n2)C1 [77; Formic Acid] | ≥ 8.30 |  |  |  |  | 7.30 to 8.30 |
| CCc1cc(-c2cc(NS(=O)(=O)c3ccccc3Cl)nn2C)cc2cnc(N[C@H]3CC[C@H](N)CC3)nc12 [Compound 6, N-(5-(2-(((1r,4r)-4-aminocyclohexyl)amino)-8-ethylquinazolin-6-yl)-1-methyl-1H-pyrazol-3-yl)-2-chlorobenzenesulfonamide] | ≥ 8.30 |  |  |  |  | 7.00 to 7.30 |
| CCc1cc(-c2ccc(NS(=O)(=O)c3ccccc3Cl)c(F)c2)cc2cnc(N[C@H]3CC[C@H](NC(C)=O)CC3)nc12 [59; Formic Acid] | 7.30 to 8.30 |  |  |  |  | 7.00 to 7.30 |
| CCc1cc(-c2ccc(NS(=O)(=O)c3ccccc3Cl)c(F)c2)cc2cnc(N[C@@H]3CC[C@H](N)[C@H](C)C3)nc12 [70; Formic Acid] | ≥ 8.30 |  |  |  |  | ≥ 8.30 |

| SMILES | pIC50 [1] | % Growth at 0.185 uM [2] | % Growth at 0.5556 uM [2] | % Growth at 1.667 uM [2] | % Growth at 5 uM [2] | pEC50 [3] |
| --- | --- | --- | --- | --- | --- | --- |
| CCc1cc(-c2ccc(NS(=O)(=O)c3ccccc3Cl)c(F)c2)cc2cnc(NC34CCC(N)(CC3)CC4)nc12 [87; Formic Acid] | ≥ 8.30 |  |  |  |  | ≥ 8.30 |
| Cc1cc(NS(=O)(=O)c2ccccc2Cl)ccc1-c1ccc2nc(N[C@H]3CC[C@H](N)CC3)ncc2c1 [Compound 2, N-(4-(2-(((1r,4r)-4-aminocyclohexyl)amino)quinazolin-6-yl)-3-methylphenyl)-2-chlorobenzenesulfonamide] | ≥ 8.30 |  |  |  |  | < 7.00 |
| CCc1cc(-c2ccc(NS(=O)(=O)c3ccccc3C)nc2OC)cc2cnc(N[C@H]3CC[C@H](N)CC3)nc12 [103; Formic Acid] | ≥ 8.30 |  |  |  |  | ≥ 8.30 |
| CCc1cc(-c2ccc(NS(=O)(=O)c3ccccc3Cl)c(F)c2)cc2cnc(N[C@@H]3CC[C@@H](N)C3)nc12 [78; Formic Acid] | ≥ 8.30 |  |  |  |  | ≥ 8.30 |
| N[C@H]1CC[C@H](Nc2ncc3cc(-c4ncc(NS(=O)(=O)c5ccccc5Cl)cc4F)ccc3n2)CC1 [51; Formic Acid] | ≥ 8.30 |  |  |  |  | 7.00 to 7.30 |
| Cc1nc(NS(=O)(=O)c2ccccc2Cl)ncc1-c1ccc2nc(N[C@H]3CC[C@H](N)CC3)ncc2c1 [68; Formic Acid] | ≥ 8.30 |  |  |  |  | 7.00 to 7.30 |
| CCc1cc(-c2cc(NS(=O)(=O)c3ccccc3Cl)no2)cc2cnc(N[C@H]3CC[C@H](N)CC3)nc12 [44; Formic Acid] | ≥ 8.30 |  |  |  |  | ≥ 8.30 |
| COc1nc(NS(=O)(=O)c2ccccc2Cl)ccc1-c1cc(C(F)(F)F)c2nc(N[C@H]3CC[C@H](N)CC3)ncc2c1 [134; Formic Acid] | ≥ 8.30 |  |  |  |  | ≥ 8.30 |
| CCc1cc(-c2ncc(NS(=O)(=O)c3ccccc3Cl)nc2OC)cc2cnc(N[C@H]3CC[C@H](N)CC3)nc12 [98; Formic Acid] | ≥ 8.30 |  |  |  |  | ≥ 8.30 |
| CCc1cc(-c2ccc(NS(=O)(=O)c3ccccc3Cl)c(F)c2)cc2cnc(N[C@H]3CC[C@H](NC(=O)[C@@H](N)C(C)C)CC3)nc12 [58; Formic Acid] | 7.30 to 8.30 |  |  |  |  | ≥ 8.30 |
| Cc1cc(NS(=O)(=O)c2ccccc2Cl)ncc1-c1ccc2nc(N[C@H]3CC[C@H](N)CC3)ncc2c1 [Compound 5, N-(5-(2-(((1r,4r)-4-aminocyclohexyl)amino)quinazolin-6-yl)-4-methylpyridin-2-yl)-2-chlorobenzenesulfonamide] | ≥ 8.30 |  |  |  |  | < 7.00 |
| CCc1cc(-c2ccc(NS(=O)(=O)c3ccccc3)nc2C)cc2cnc(N[C@H]3CC[C@H](N)CC3)nc12 [111; Formic Acid] | ≥ 8.30 |  |  |  |  | 7.00 to 7.30 |
| CCc1cc(-c2ccc(NS(=O)(=O)c3ccccc3Cl)c(F)c2)cc2cnc(N[C@@H]3CC[C@H](N)C3)nc12 [79; Formic Acid] | ≥ 8.30 |  |  |  |  | 7.30 to 8.30 |
| Cc1cc2nc(N[C@H]3CC[C@H](N)CC3)ncc2cc1-c1ccc(NS(=O)(=O)c2ccccc2Cl)c(F)c1 [90; Formic Acid] | ≥ 8.30 |  |  |  |  | 7.30 to 8.30 |
| NC12CCC(Nc3ncc4cc(-c5ccc(NS(=O)(=O)c6ccccc6Cl)c(F)c5)ccc4n3)(CC1)C2 [86; Formic Acid] | ≥ 8.30 |  |  |  |  | 7.00 to 7.30 |
